The target of this test is T1, bromodomain BRD4 (44-168), BRD4 (333-460), and BRD4 (1-477 or 44-460) (Homo sapiens, UniProt O60885).
T1 construct: BRD4(44-168), BRD4(333-460), BRD4(44-460), BRD4(1-477), O60885-1; fused on or other part: N-terminal BirA biotinylation motif, biotinylated; The TVMV-cleavable His6 tag is removed, except in some BRD4(44-460) runs detected with anti-His terbium cryptate
The test can be described thus: Time Resolved Fluorescence Resonance Energy Transfer (TR-FRET) binding assay. The conditions noted are these: one of the FRET assays described. (In general: Time-resolved FRET reads energy transfer from a long-lived donor to a nearby acceptor.)

Experimental findings from patent publication US9492460B2, “Carbazole compounds useful as bromodomain inhibitors” (Bristol-Myers Squibb Company, priority 2013, dated 2016) are described below.

One may read the IC50 as the concentration that gives 50% inhibition. Read a high IC50 as weaker potency. With `Cc1noc(C)c1-c1cc(C(N)=O)c2c3cc(NCCO)ccc3n(Cc3ccccc3)c2c1` [Example 137, 9-benzyl-2-(3,5-dimethyl-4-isoxazolyl)-6-((2-hydroxyethyl)amino)-9H-carbazole-4-carboxamide], the concentration for half-maximal inhibition (IC50) is less than 0.05 µM. For `Cc1noc(C)c1-c1cc(C(N)=O)c2c3cc(NCC#N)ccc3n(Cc3ccccc3)c2c1` [Example 138, 9-benzyl-6-((cyanomethyl)amino)-2-(3,5-dimethyl-4-isoxazolyl)-9H-carbazole-4-carboxamide] the value was less than 0.05 µM; for `Cc1noc(C)c1-c1cc(C(N)=O)c2c3cc(NCC(F)F)ccc3n(Cc3ccccc3)c2c1` [Example 139, 9-benzyl-6-((2,2-difluoroethyl)amino)-2-(3,5-dimethyl-4-isoxazolyl)-9H-carbazole-4-carboxamide], less than 0.05 µM; for `Cc1noc(C)c1-c1cc(C(N)=O)c2c3cc(N(CCO)CCO)ccc3n(Cc3ccccc3)c2c1` [Example 140, 9-benzyl-6-(bis(2-hydroxyethyl)amino)-2-(3,5-dimethyl-4-isoxazolyl)-9H-carbazole-4-carboxamide], less than 0.05 µM. The result for `CNC(=O)c1cc(-c2c(C)noc2C)cc2c1c1cc(N(C)C)ccc1n2Cc1ccccc1` [Example 141, 9-benzyl-6-(dimethylamino)-2-(3,5-dimethyl-4-isoxazolyl)-N-methyl-9H-carbazole-4-carboxamide] reads less than 0.05 µM. `CC(=O)Nc1ccc2c(c1)c1c(C(N)=O)cc(-c3c(C)noc3C)cc1n2Cc1ccccc1` [Example 142, 6-acetamido-9-benzyl-2-(3,5-dimethyl-4-isoxazolyl)-9H-carbazole-4-carboxamide] returned an IC50 of less than 0.05 µM. The result for `Cc1noc(C)c1-c1cc(C(N)=O)c2c3cc(NS(C)(=O)=O)ccc3n(Cc3ccccc3)c2c1` [Example 143, 9-benzyl-2-(3,5-dimethyl-4-isoxazolyl)-6-(methylsulfonamido)-9H-carbazole-4-carboxamide] reads less than 0.05 µM; that for `COC(=O)Nc1ccc2c(c1)c1c(C(N)=O)cc(-c3c(C)noc3C)cc1n2Cc1ccccc1` [Example 144, methyl (9-benzyl-5-carbamoyl-7-(3,5-dimethyl-4-isoxazolyl)-9H-carbazol-3-yl)carbamate], less than 0.05 µM.

Compound `Cc1noc(C)c1-c1cc(C(N)=O)c2c3cc(NC(=O)C4CCOCC4)ccc3n(Cc3ccccc3)c2c1` [Example 145, 9-benzyl-2-(3,5-dimethyl-4-isoxazolyl)-6-((tetrahydro-2H-pyran-4-ylcarbonyl)amino)-9H-carbazole-4-carboxamide] showed an IC50 of less than 0.05 µM.

Compound `Cc1noc(C)c1-c1cc(C(N)=O)c2c3cc(NC(=O)N4CCOCC4)ccc3n(Cc3ccccc3)c2c1` [Example 146, 9-benzyl-2-(3,5-dimethyl-4-isoxazolyl)-6-((4-morpholinylcarbonyl)amino)-9H-carbazole-4-carboxamide] came in with an IC50 of less than 0.05 µM. The result for `Cc1noc(C)c1-c1cc(C(N)=O)c2c3cc(NC(=O)N(C)C)ccc3n(Cc3ccccc3)c2c1` [Example 147, 9-benzyl-6-((dimethylcarbamoyl)amino)-2-(3,5-dimethyl-4-isoxazolyl)-9H-carbazole-4-carboxamide] reads less than 0.05 µM; that for `CNC(=O)Nc1ccc2c(c1)c1c(C(N)=O)cc(-c3c(C)noc3C)cc1n2Cc1ccccc1` [Example 148, 9-benzyl-2-(3,5-dimethyl-4-isoxazolyl)-6-((methylcarbamoyl)amino)-9H-carbazole-4-carboxamide], less than 0.05 µM; that for `Cc1noc(C)c1-c1cc(C(N)=O)c2c3cc(NC(=O)C4CCCC4)ccc3n(Cc3ccccc3)c2c1` [Example 149, 9-benzyl-6-((cyclopentylcarbonyl)amino)-2-(3,5-dimethyl-4-isoxazolyl)-9H-carbazole-4-carboxamide], less than 0.05 µM. `Cc1noc(C)c1-c1cc(C(N)=O)c2c(c1)[nH]c1ccc(N3CCCOC3=O)cc12` [Example 150, 2-(3,5-dimethyl-4-isoxazolyl)-6-(2-oxo-1,3-oxazinan-3-yl)-9H-carbazole-4-carboxamide]: the IC50 was less than 0.5 µM. In the case of `Cc1noc(C)c1-c1cc(C(N)=O)c2c3cc(N4CCCOC4=O)ccc3n(Cc3ccc(F)cc3)c2c1` [Example 151, 2-(3,5-dimethyl-4-isoxazolyl)-9-(4-fluorobenzyl)-6-(2-oxo-1,3-oxazinan-3-yl)-9H-carbazole-4-carboxamide], the IC50 is less than 0.05 µM.

In turn, `Cc1noc(C)c1-c1cc(C(N)=O)c2c3cc(N4CCOC4=O)ccc3n(Cc3ccc(F)cc3)c2c1` [Example 152, 2-(3,5-dimethyl-4-isoxazolyl)-9-(4-fluorobenzyl)-6-(2-oxo-1,3-oxazolidin-3-yl)-9H-carbazole-4-carboxamide] gave an IC50 of less than 0.05 µM. For `Cc1noc(C)c1-c1cc(C(N)=O)c2c3cc(N4CC(C)(C)COC4=O)ccc3n(Cc3ccc(F)cc3)c2c1` [Example 153, 2-(3,5-dimethyl-4-isoxazolyl)-6-(5,5-dimethyl-2-oxo-1,3-oxazinan-3-yl)-9-(4-fluorobenzyl)-9H-carbazole-4-carboxamide] the value was less than 0.05 µM; for `CCNC(=O)c1cc(-c2c(C)noc2C)cc2[nH]c3ccc(N4CCCOC4=O)cc3c12` [Example 154, 2-(3,5-dimethyl-4-isoxazolyl)-N-ethyl-6-(2-oxo-1,3-oxazinan-3-yl)-9H-carbazole-4-carboxamide], less than 7.5 µM; for `CCNC(=O)c1cc(-c2c(C)noc2C)cc2c1c1cc(N3CCCOC3=O)ccc1n2Cc1ccc(F)cc1` [Example 155, 2-(3,5-dimethyl-4-isoxazolyl)-N-ethyl-9-(4-fluorobenzyl)-6-(2-oxo-1,3-oxazinan-3-yl)-9H-carbazole-4-carboxamide], less than 7.5 µM. In the case of `Cc1noc(C)c1-c1cc(C(N)=O)c2c3cc(N4CCCOC4=O)ccc3n(Cc3ccccc3)c2c1` [Example 156, 9-benzyl-2-(3,5-dimethyl-4-isoxazolyl)-6-(2-oxo-1,3-oxazinan-3-yl)-9H-carbazole-4-carboxamide], the IC50 was less than 0.05 µM.

In the case of `Cc1noc(C)c1-c1cc(C(N)=O)c2c3cc(N4CCCOC4=O)ccc3n(Cc3ccc(Cl)cc3)c2c1` [Example 157, 9-(4-chlorobenzyl)-2-(3,5-dimethyl-4-isoxazolyl)-6-(2-oxo-1,3-oxazinan-3-yl)-9H-carbazole-4-carboxamide], the IC50 was less than 0.05 µM. In turn, `Cc1noc(C)c1-c1cc(C(N)=O)c2c3cc(N4CCCOC4=O)ccc3n(C(C)c3ccccc3)c2c1` (centres unmarked) [Example 158, 2-(3,5-dimethyl-4-isoxazolyl)-6-(2-oxo-1,3-oxazinan-3-yl)-9-(1-phenylethyl)-9H-carbazole-4-carboxamide] gave a concentration for half-maximal inhibition (IC50) of less than 0.05 µM. The compound `Cc1noc(C)c1-c1cc(C(N)=O)c2c3cc(N4CCCOC4=O)ccc3n(Cc3cc(F)ccc3F)c2c1` [Example 159, 9-(2,5-difluorobenzyl)-2-(3,5-dimethyl-4-isoxazolyl)-6-(2-oxo-1,3-oxazinan-3-yl)-9H-carbazole-4-carboxamide] registered an IC50 of less than 0.05 µM. Compound `Cc1noc(C)c1-c1cc(C(N)=O)c2c3cc(N4CC(C)(C)COC4=O)ccc3n(Cc3ccccc3)c2c1` [Example 160, 9-benzyl-2-(3,5-dimethyl-4-isoxazolyl)-6-(5,5-dimethyl-2-oxo-1,3-oxazinan-3-yl)-9H-carbazole-4-carboxamide] gave an IC50 of less than 0.05 µM.

As for `Cc1noc(C)c1-c1cc(C(N)=O)c2c3cc(N4CCOC4=O)ccc3n(Cc3ccccc3)c2c1` [Example 161, 9-benzyl-2-(3,5-dimethyl-4-isoxazolyl)-6-(2-oxo-1,3-oxazolidin-3-yl)-9H-carbazole-4-carboxamide], the IC50 is less than 0.05 µM. For `Cc1noc(C)c1-c1cc(C(N)=O)c2c3cc(N4CCOC4=O)ccc3n(Cc3ccc(Cl)cc3)c2c1` [Example 162, 9-(4-chlorobenzyl)-2-(3,5-dimethyl-4-isoxazolyl)-6-(2-oxo-1,3-oxazolidin-3-yl)-9H-carbazole-4-carboxamide] the value was less than 0.05 µM; for `Cc1noc(C)c1-c1cc(C(N)=O)c2c3cc(N4CCOC4=O)ccc3n(C(C)c3ccccc3)c2c1` (centres unmarked) [Example 163, 2-(3,5-dimethyl-4-isoxazolyl)-6-(2-oxo-1,3-oxazolidin-3-yl)-9-(1-phenylethyl)-9H-carbazole-4-carboxamide], less than 0.05 µM. For `Cc1noc(C)c1-c1cc(C(N)=O)c2c3cc(N4CCOC4=O)ccc3n(Cc3ccc(Cl)c(F)c3)c2c1` [Example 164, 9-(4-chloro-3-fluorobenzyl)-2-(3,5-dimethyl-4-isoxazolyl)-6-(2-oxo-1,3-oxazolidin-3-yl)-9H-carbazole-4-carboxamide] the value was less than 0.5 µM. The result for `CCNC(=O)c1cc(-c2c(C)noc2C)cc2c1c1cc(N3CCCOC3=O)ccc1n2Cc1ccccc1` [Example 165, 9-benzyl-2-(3,5-dimethyl-4-isoxazolyl)-N-ethyl-6-(2-oxo-1,3-oxazinan-3-yl)-9H-carbazole-4-carboxamide] reads less than 0.5 µM. `CCNC(=O)c1cc(-c2c(C)noc2C)cc2c1c1cc(N3CCCOC3=O)ccc1n2Cc1ccc(Cl)cc1` [Example 166, 9-(4-chlorobenzyl)-2-(3,5-dimethyl-4-isoxazolyl)-N-ethyl-6-(2-oxo-1,3-oxazinan-3-yl)-9H-carbazole-4-carboxamide] returned an IC50 of less than 7.5 µM. `CCNC(=O)c1cc(-c2c(C)noc2C)cc2c1c1cc(N3CCCOC3=O)ccc1n2C(C)c1ccccc1` (centres unmarked) [Example 167, 2-(3,5-dimethyl-4-isoxazolyl)-N-ethyl-6-(2-oxo-1,3-oxazinan-3-yl)-(1-phenylethyl)-9H-carbazole-4-carboxamide] yielded an IC50 of less than 0.05 µM. The result for `CNC(=O)c1cc(-c2c(C)noc2C)cc2[nH]c3ccc(N4CCCOC4=O)cc3c12` [Example 168, 2-(3,5-dimethyl-4-isoxazolyl)-N-methyl-6-(2-oxo-1,3-oxazinan-3-yl)-9H-carbazole-4-carboxamide] reads less than 0.5 µM.
